Common to all, as to assay: LOEC (log10 uM (lowest observed effect concentration))
Compound in one assay: Cn1cnc([N+](=O)[O-])c1Sc1ncnc2[nH]cnc12 [Azathioprine]
Here is the method: (§1)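 BioMAP Diversity Plus panel in human primary cell co-cultures, 4 concentrations in duplicate blinded samples. Responses are log10 fold change versus DMSO control, processed with tcpl v2.1.0. A hit is called when responses at any concentration exceed the cutoff (the larger of 3*bmad or log10(1.2)); the lowest observed effect concentration (modl_ga, log10 uM) is reported for hits.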

Compound in assay [1]: FC(F)(F)C(F)(F)C(F)(F)C(F)(F)C(F)(F)C(F)(F)C(F)(F)CCI [1-Iodo-1H,1H,2H,2H-perfluorononane]
As to the method: as §1

Compound in assay [2]: C=CC(=O)OCCC(F)(F)C(F)(F)C(F)(F)C(F)(F)F [2-(Perfluorobutyl)ethyl acrylate]
As to the method: as §1

Compound in assay [3]: O=C(O)C(F)(F)C(F)(F)C(F)(F)C(F)(F)C(F)(F)C(F)(F)C(F)(F)C(F)(F)C(F)(F)C(F)(F)C(F)(F)C(F)(F)F [Perfluorotridecanoic acid]
Here is the method: as §1

Compound in the next assay: N=C(N)C(F)(F)C(F)(F)C(F)(F)C(F)(F)C(F)(F)C(F)(F)C(F)(F)F [Perfluorooctanamidine]
Here is the method:
as §1

Compound in assay [4]: O=P(O)(O)CCC(F)(F)C(F)(F)C(F)(F)C(F)(F)C(F)(F)C(F)(F)C(F)(F)C(F)(F)F [((Perfluorooctyl)ethyl)phosphonic acid]
Here is the method:
as §1

Compound in assay [5]: O=C(O)C(F)(F)C(F)(F)C(F)(F)C(F)(F)C(F)(F)C(F)(F)C(F)(F)C(F)(F)Cl [9-Chloro-perfluorononanoic acid]
Here is the method: as §1

Compound in assay [6]: O=S(=O)(O)C(F)(F)C(F)(F)C(F)(F)C(F)(F)C(F)(F)C(F)(F)C(F)(F)C(F)(F)F [Potassium perfluorooctanesulfonate]
Here is the method: as §1

Compound in another assay: NC(=O)C(F)(F)C(F)(F)C(F)(F)C(F)(F)C(F)(F)C(F)(F)C(F)(F)F [Perfluorooctanamide]
As to the method: as §1

Compound in assay [7]: CC(C)(C)C(=O)CC(=O)C(F)(F)C(F)(F)C(F)(F)F [(Heptafluorobutanoyl)pivaloylmethane]
Here is the method: as §1

Compound in assay [8]: O=C(O)C(F)(F)C(F)(F)C(F)(F)C(F)(F)C(F)(F)C(F)(F)C(F)(F)C(F)(F)C(F)(F)C(F)(F)C(F)(F)C(F)(F)C(F)(F)F [Perfluorotetradecanoic acid]
Here is the method:
as §1

Compound in assay [9]: CNS(=O)(=O)C(F)(F)C(F)(F)C(F)(F)C(F)(F)C(F)(F)C(F)(F)C(F)(F)C(F)(F)F [N-Methylperfluorooctanesulfonamide]
Here is the method: as §1

Compound in assay [10]: O=C(O)C(F)(F)OC(F)(F)C(F)(F)OC(F)(F)C(F)(F)C(F)(F)C(F)(F)F [Perfluoro-3,6-dioxadecanoic acid]
As to the method: as §1

Compound in assay [11]: O=S(=O)(O)C(F)(F)C(F)(F)C(F)(F)C(F)(F)C(F)(F)C(F)(F)C(F)(F)C(F)(F)F [Perfluorooctanesulfonic acid]
Here is the method: as §1

Compound in assay [12]: O=S(=O)(O)C(F)(F)C(F)(F)C(F)(F)C(F)(F)F [Perfluorobutanesulfonic acid]
Here is the method: as §1

Compound in assay [13]: O=C(O)CCC(F)(F)C(F)(F)C(F)(F)C(F)(F)C(F)(F)F [2H,2H,3H,3H-Perfluorooctanoic acid]
As to the method: as §1

± gives the standard deviation of the averaged measurements.

Consider hDFCGF Proliferation down, for which the “LOEC (log10 uM)” value stood at 1.48 with Azathioprine; 0.301 in assay [1]; 1.54 ± 0.34 in assay [2]; 0.477 in assay [3]; 1.78 with Perfluorooctanamidine; 1.78 in assay [4]. For the same test system, the “LOEC (log10 uM)” value in assay [5] and in assay [6] was 1.78 throughout.
As to KF3CT MMP9 down, the “LOEC (log10 uM)” value in the assay with Perfluorooctanamide was 1.78; in assay [5] it was 1.3.
In the case of 3C Thrombomodulin up, the “LOEC (log10 uM)” value in assay [7] and in [5] was 1.78 throughout.
On to 3C Proliferation down, for which the “LOEC (log10 uM)” value in [8] was -0.199 ± 0.71; in the assay with Azathioprine, 1.48; in assay [2], 1.78; in assay [7] it was 1.78; in [9], 1.54 ± 0.34; in assay [3] it was 1.22 ± 0.37. Further, the “LOEC (log10 uM)” value with Perfluorooctanamidine was 1.78; in assay [4], 0.801 ± 0.71; in assay [5] it was 1.78; in assay [10], 1.04 ± 1.
3C HLADR down: the “LOEC (log10 uM)” value in [9] came to 1.3; in [5], 1.78.
Take KF3CT IL8 down: the “LOEC (log10 uM)” value came to 1.3 in assay [9], 1.78 in assay [5] and 1.78 in [10].
hDFCGF PAI1 down: the “LOEC (log10 uM)” value with Azathioprine is 1.48; with Perfluorooctanamidine, 1.78; in assay [4], 1.78; in assay [5], 1.78.
In the case of hDFCGF IP10 down, the “LOEC (log10 uM)” value with Azathioprine is 1.22 ± 0.37; in [2], 1.3; in [3] it was 0.239 ± 0.34; in assay [11] it was 1.3; in assay [5] it was 1.3; in assay [6], 1.07 ± 0.32. In addition, the “LOEC (log10 uM)” value in assay [10] came to 1.54 ± 0.34.
Regarding IMphg ESelectin down, the “LOEC (log10 uM)” value turned out to be 1.48 in the assay with Azathioprine and 0.845 in assay [9].
Regarding BE3C PAI1 down, the “LOEC (log10 uM)” value is 0.845 in assay [9], 1.3 in assay [11], 1.3 in assay [5] and 1.3 in assay [6].
Turning to BT Bcell Proliferation down, the “LOEC (log10 uM)” value with Azathioprine was 1.48; in assay [2] it was 1.78; with Perfluorooctanamidine, 1.78; in assay [4], 1.78.
For the test system KF3CT PAI1 up, the “LOEC (log10 uM)” value in assay [9] was found to be 0.801 ± 0.71.
Consider LPS MCSF down, for which the “LOEC (log10 uM)” value came to 1.48 with Azathioprine, 1.48 in [3] and 1.78 in assay [4].
SAg CD40 down: the “LOEC (log10 uM)” value came to 1.78 in assay [2], 1.22 ± 0.37 in [3], 1.78 in assay [4] and 1.78 in assay [5].
For the test system BE3C tPA up, in assay [4], the “LOEC (log10 uM)” value was found to be 1.3.
hDFCGF ICAM1 down: the “LOEC (log10 uM)” value in assay [2] is 1.78; in assay [9], 1.78; in assay [5] it was 1.07 ± 0.32.
Turning to CASM3C VCAM1 down, the “LOEC (log10 uM)” value with Azathioprine worked out at 1.48; in assay [2], 1.78; in assay [9], 0.801 ± 0.71; in assay [3], 0.954.
Regarding LPS CD40 down, the “LOEC (log10 uM)” value (in [2]; in the assay with Perfluorooctanamidine; in assay [4]) was 1.78 throughout.
Take IMphg ESelectin up: the “LOEC (log10 uM)” value in assay [4], in [11] and in assay [6] was 1.78 each time.
In the case of BE3C HLADR down, the “LOEC (log10 uM)” value in assay [11] turned out to be 1.3; in [5], 1.3; in assay [6] it was 1.3; in assay [10] it was 1.54 ± 0.34.
Turning to CASM3C MIG down, the results for the “LOEC (log10 uM)” value in assay [2] and in [9] were 1.78 and 1.07 ± 0.32, respectively.
For IMphg IL8 up, the “LOEC (log10 uM)” value in assay [12] is 1.78.
In the case of LPS PGE2 up, the “LOEC (log10 uM)” value in assay [7] and in assay [4] was 1.78 in each case.
As to BE3C IL8 down, the “LOEC (log10 uM)” value in assay [9] stood at 1.54 ± 0.34; in assay [11] it was 1.3; in [5], 1.54 ± 0.34.
IMphg IL1a up: the “LOEC (log10 uM)” value in assay [9] stood at 1.54 ± 0.34.
Take BF4T Eotaxin3 down: the “LOEC (log10 uM)” value in [4] was found to be 1.54 ± 0.34; in assay [5] it was 0.801 ± 0.71; in assay [10], 0.845.
Turning to MyoF CollagenIV up, the “LOEC (log10 uM)” value came to 0.845 in assay [9], 1.3 in assay [5] and 1.78 in [10].
Regarding SAg SRB down, the “LOEC (log10 uM)” value (with Perfluorooctanamidine; in assay [4]; in [5]) was 1.78 in each case.
BF4T IL8 down: in assay [9], the “LOEC (log10 uM)” value was 1.78.
As for 4H Eotaxin3 down, the “LOEC (log10 uM)” value came out at 0.345 ± 0.71 in assay [8], 1.78 with Perfluorooctanamidine and 1.78 in assay [4].
For the test system 4H VCAM1 down, the “LOEC (log10 uM)” value in assay [8] is 0.0731 ± 0.32; with Azathioprine it was 1.48; in [3], 0.716 ± 0.34; with Perfluorooctanamidine it was 1.78; in assay [5], 1.78.
For the test system hDFCGF VCAM1 down, the “LOEC (log10 uM)” value came out at 1.48 with Azathioprine; 1.3 in [2]; 0.573 ± 0.39 in [9]; 0.977 ± 0.71 in assay [3]; 1.54 ± 0.34 with Perfluorooctanamidine; 1.78 in [11]. The “LOEC (log10 uM)” value came out at 1.78 in assay [5], 1.78 in assay [6] and 1.3 in assay [10].
In the case of IMphg IL10 down, the “LOEC (log10 uM)” value with Azathioprine is 1.48; in assay [13], 1.78; in [4], 1.78; in assay [11], 1.78; in assay [5] it was 1.78; in assay [6], 1.78. In assay [10], the “LOEC (log10 uM)” value came out at 1.78.
As to hDFCGF CollagenIII down, the “LOEC (log10 uM)” value is 0.977 ± 0.71 with Azathioprine; 0.477 in assay [3]; 1.3 with Perfluorooctanamidine; 1.3 in assay [4]; 1.3 in assay [5]; 1.78 in [10].
For BE3C MMP9 down, the “LOEC (log10 uM)” value in assay [9] came to 0.573 ± 0.39; in assay [11] it was 1.3; in [5], 1.78; in assay [6], 1.3.
Turning to BE3C IP10 down, the “LOEC (log10 uM)” value is 1.3 in assay [11], 1.3 in assay [5], 1.3 in assay [6] and 1.54 ± 0.34 in assay [10].

The values above are taken from the supplement of paper PMC10331698.
